# Measured values: ChEMBL document CHEMBL4765295, “Synthesis, pharmacological profile and 2D-QSAR studies of curcumin-amino acid conjugates as potential drug candidates” (Eur J Med Chem, 2020)
# Several values for one entry are separate records, joined by “and”; a condition that tells them apart may be missing. Equal entries are not always repeated.
# Assays:
# Rattus norvegicus [1] = test: Antiinflammatory activity in Wistar rat model of carrageenan-induced paw edema assessed as reduction in thickness of paw edema at 10 mg/kg, ip pretreated for 1 hr followed by carrageenan challenge and measured after 1 hr (reference value: 2.41 +/-0.05 mm); type: functional; conditions: time 1 hr after carrageenan
# Rattus norvegicus [2] = test: Anti-inflammatory activity in Wistar rat assessed as inhibition of carrageenan-induced paw edema at 10 mg/kg, ip pretreated for 1 hr followed by carrageenan challenge and measured after 1 hr relative to control (reference value: 0.00 +/-0.02 %); type: functional; conditions: time 2 hrs
# Rattus norvegicus [3] = test: Antiinflammatory activity in Wistar rat model of carrageenan-induced paw edema assessed as reduction in thickness of paw edema at 10 mg/kg, ip pretreated for 1 hr followed by carrageenan challenge and measured after 2 hrs (reference value: 2.06 +/-0.09 mm); type: functional; conditions: time 3 hrs
# Rattus norvegicus [4] = test: Anti-inflammatory activity in Wistar rat assessed as inhibition of carrageenan-induced paw edema at 10 mg/kg, ip pretreated for 1 hr followed by carrageenan challenge and measured after 2 hr relative to control (reference value: 0.00 +/-0.03 %); type: functional; conditions: time 3 hrs
# Rattus norvegicus [5] = test: Antiinflammatory activity in Wistar rat model of carrageenan-induced paw edema assessed as reduction in thickness of paw edema at 10 mg/kg, ip pretreated for 1 hr followed by carrageenan challenge and measured after 3 hrs (reference value: 1.79 +/-0.07 mm); type: functional; conditions: time 4 hrs
# Rattus norvegicus [6] = test: Anti-inflammatory activity in Wistar rat assessed as inhibition of carrageenan-induced paw edema at 10 mg/kg, ip pretreated for 1 hr followed by carrageenan challenge and measured after 3 hr relative to control (reference value: 0.00 +/-0.1 %); type: functional; conditions: time 4 hrs
# Rattus norvegicus [7] = test: Antiinflammatory activity in Wistar rat model of carrageenan-induced paw edema assessed as reduction in thickness of paw edema at 10 mg/kg, ip pretreated for 1 hr followed by carrageenan challenge and measured after 4 hrs (reference value: 1.40 +/-0.10 mm); type: functional; conditions: time 5 hrs
# Rattus norvegicus [8] = test: Anti-inflammatory activity in Wistar rat assessed as inhibition of carrageenan-induced paw edema at 10 mg/kg, ip pretreated for 1 hr followed by carrageenan challenge and measured after 4 hr relative to control (reference value: 0.00 +/-0.4 %); type: functional; conditions: time 5 hrs
# Rattus norvegicus [9] = test: Antiinflammatory activity in Wistar rat model of carrageenan-induced paw edema assessed as reduction in thickness of paw edema at 10 mg/kg, ip pretreated for 1 hr followed by carrageenan challenge and measured after 24 hrs (reference value: 0.83 +/-0.08 mm); type: functional; conditions: time 25 hrs
# Rattus norvegicus [10] = test: Anti-inflammatory activity in Wistar rat assessed as inhibition of carrageenan-induced paw edema at 10 mg/kg, ip pretreated for 1 hr followed by carrageenan challenge and measured after 24 hr relative to control (reference value: 0.00 +/-0.3 %); type: functional; conditions: time 25 hrs
# Rattus norvegicus [11] = test: Anti-inflammatory activity in Wistar rat assessed as inhibition of carrageenan-induced paw edema at 10 mg/kg, ip pretreated for 1 hr followed by carrageenan challenge and measured after 4 hr relative to indomethacin; type: functional; conditions: time 5 hrs
# Splenocyte [12] = test: Immunomodulatory activity in Swiss albino mouse splenocytes assessed as cell viability at 10 uM by measuring stimulation index incubated for 72 hrs in presence of mitogenic stimulus phytohaemagglutinin by MTT assay (reference value: 1.00 +/- 0.24); type: functional
# Splenocyte [13] = test: Immunomodulatory activity in Swiss albino mouse splenocytes assessed as cell viability at 10 uM by measuring inhibition of stimulation index incubated for 72 hrs in presence of mitogenic stimulus phytohaemagglutinin by MTT assay relative to indomethacin; type: functional; conditions: read-out: Activity
# Peritoneal macrophage [14] = test: Antiinflammatory activity in […] mouse Peritoneal macrophages assessed as reduction in LPS-induced NO production by measuring reduction in stimulation index at 10 uM preincubated for 1 hr followed by LPS stimulation measured after 24 hrs by Griess method (reference value: 27.31 +/- 2.56 uM); type: functional; conditions: time 25 hrs
# Peritoneal macrophage [15] = test: Antiinflammatory activity in […] mouse Peritoneal macrophages assessed as inhibition of LPS-induced NO production at 10 uM preincubated for 1 hr followed by LPS stimulation measured after 24 hrs by Griess method relative to control (reference value: 0.0 %); type: functional; parameters: scale not given: the % may be the effect or the level left; conditions: time 25 hrs
# Staphylococcus aureus = test: Antibacterial activity against Staphylococcus aureus ATCC 25923 incubated for 18 hrs by agar dilution method; type: functional
# Streptococcus pyogenes = test: Antibacterial activity against Streptococcus pyogenes ATCC 19615 incubated for 18 hrs by agar dilution method; type: functional
# Salmonella typhimurium = test: Antibacterial activity against Salmonella typhimurium ATCC 19430 incubated for 18 hrs by agar dilution assay; type: functional, Salmonella enterica subsp. enterica serovar Typhimurium; conditions: Salmonella enterica
# Pseudomonas aeruginosa = test: Antibacterial activity against Pseudomonas aeruginosa ATCC 27853 incubated for 18 hrs by agar dilution assay; type: functional
# Candida albicans = test: Antifungal activity against Candida albicans incubated for 18 to 24 hrs by CLSI method; type: functional; conditions: time 18-24 hrs
# A549 = test: Antiproliferative activity against human A549 cells assessed as inhibition of cell growth after 72 hrs by MTT assay; type: functional, cell-based; conditions: A549, 72 h
# MCF7 = test: Antiproliferative activity against human MCF7 cells assessed as inhibition of cell growth after 72 hrs by MTT assay; type: functional, cell-based; conditions: MCF7, 72 h
# PC-3 = test: Antiproliferative activity against human PC3 cells assessed as inhibition of cell growth after 72 hrs by MTT assay; type: functional, cell-based; conditions: PC-3, 72 h
# [16] = Ulcerogenic activity in fasted albino mouse assessed as incidence of gastric ulceration at 10 mg/kg, po for 3 days (reference value: 0 %); type: toxicity, organism-based; conditions: in vivo, 72 h, time 3 day
# [17] = Ulcerogenic activity in fasted albino mouse assessed as average number of ulcers in gastric mucosa at 10 mg/kg, po for 3 days (reference value: 0); type: toxicity, organism-based; conditions: in vivo, 72 h, time 3 day
# [18] = Ulcerogenic activity in fasted albino mouse assessed as average severity of ulcers in gastric mucosa at 10 mg/kg, po for 3 days (reference value: 0); type: toxicity, organism-based; conditions: in vivo, 72 h, time 3 day
# [19] = Ulcerogenic activity in fasted albino mouse assessed as ulcer index in gastric mucosa at 10 mg/kg, po for 3 days (reference value: 0); type: toxicity, organism-based; conditions: in vivo, 72 h, time 3 day
# Mus musculus [20] = test: Analgesic activity in albino mouse assessed reduction in acetic acid-induced abdominal writhing by measuring writing reflex at 10 mg/kg, ip pretreated for 1 hr followed by acetic acid challenge and measured starting 5 mins post acetic acid challenge for 10 mins (reference value: 42.4 +/- 1.02); type: functional; conditions: time 75 min, 1.25 h
# Mus musculus [21] = test: Analgesic activity in albino mouse assessed protection against acetic acid-induced abdominal writhing at 10 mg/kg, ip pretreated for 1 hr followed by acetic acid challenge and measured starting 5 mins post acetic acid challenge for 10 mins relative to control (reference value: 0 %); type: functional; conditions: time 75 min, 1.25 h
# Mus musculus [22] = test: Analgesic activity in albino mouse assessed protection against acetic acid-induced abdominal writhing at 10 mg/kg, ip pretreated for 1 hr followed by acetic acid challenge and measured starting 5 mins post acetic acid challenge for 10 mins relative to indomethacin; type: functional; conditions: time 75 min, 1.25 h
# Mus musculus [23] = test: Analgesic activity in albino mouse assessed as forepaw licking/jumping latency time at 10 mg/kg, ip measured after 30 mins by hot plate test (reference value: 5.02 +/- 0.09 sec); type: functional; conditions: 0.5 h
# Mus musculus [24] = test: Analgesic activity in albino mouse assessed as protection at 10 mg/kg, ip measured after 30 mins by hot plate test (reference value: 0 %); type: functional; conditions: 0.5 h
# Mus musculus [25] = test: Analgesic activity in albino mouse assessed as forepaw licking/jumping latency time at 10 mg/kg, ip measured after 60 mins by hot plate test (reference value: 3.42 +/- 0.03 sec); type: functional; conditions: 1 h
# Mus musculus [26] = test: Analgesic activity in albino mouse assessed as protection at 10 mg/kg, ip measured after 60 mins by hot plate test (reference value: 0 %); type: functional; conditions: 1 h
# Mus musculus [27] = test: Analgesic activity in albino mouse assessed as forepaw licking/jumping latency time at 10 mg/kg, ip measured after 90 mins by hot plate test (reference value: 2.72 +/- 0.01 sec); type: functional; conditions: 1.5 h
# Mus musculus [28] = test: Analgesic activity in albino mouse assessed as protection at 10 mg/kg, ip measured after 90 mins by hot plate test (reference value: 0 %); type: functional; conditions: 1.5 h
# Mus musculus [29] = test: Analgesic activity in albino mouse assessed as forepaw licking/jumping latency time at 10 mg/kg, ip measured after 120 mins by hot plate test (reference value: 2.62 +/- 0.06 sec); type: functional; conditions: 2 h
# Mus musculus [30] = test: Analgesic activity in albino mouse assessed as protection at 10 mg/kg, ip measured after 120 mins by hot plate test (reference value: 0 %); type: functional; conditions: 2 h
# Mus musculus [31] = test: Analgesic activity in albino mouse assessed as protection at 10 mg/kg, ip measured after 120 mins by hot plate test relative to indomethacin; type: functional; conditions: 2 h
# [32] = Toxicity in albino mouse assessed as induction of toxic symptoms at 50 to 100 mg/kg, ip measured after 24 hrs; type: organism-based; conditions: in vivo, dose 50-100 mg/kg
SMILES,Activity (Rattus norvegicus [1]) [mm],inhibition in vivo at 10 mg/kg (Rattus norvegicus [2]) [%],Activity (Rattus norvegicus [3]) [mm],inhibition in vivo at 10 mg/kg (Rattus norvegicus [4]) [%],Activity (Rattus norvegicus [5]) [mm],inhibition in vivo at 10 mg/kg (Rattus norvegicus [6]) [%],Activity (Rattus norvegicus [7]) [mm],inhibition in vivo at 10 mg/kg (Rattus norvegicus [8]) [%],Activity (Rattus norvegicus [9]) [mm],inhibition in vivo at 10 mg/kg (Rattus norvegicus [10]) [%],inhibition in vivo at 10 mg/kg (Rattus norvegicus [11]) [%],Activity_index (Splenocyte [12]),viability at 10 µM (Splenocyte [13]) [%],Activity (Peritoneal macrophage [14]) [µM],Activity (Peritoneal macrophage [15]) [%],MIC (Staphylococcus aureus),MIC (Streptococcus pyogenes),MIC (Salmonella typhimurium),MIC (Pseudomonas aeruginosa),MIC (Candida albicans),further results
CC[C@H](C)[C@H](N)C(=O)Oc1ccc(/C=C/C(=O)/C=C(O)/C=C/c2ccc(OC(=O)[C@@H](N)[C@@H](C)CC)c(OC)c2)cc1OC.Cl.Cl,1.61,33,1.31,36,0.94,47,0.34,76,0.58,30,87,1.59,76,17.63,35.45,0.25 µg/mL and 0.374 µM,0.5 µg/mL and 0.749 µM,0.125 µg/mL and 0.187 µM,0.25 µg/mL and 0.374 µM,0.125 µg/mL and 0.187 µM,IC50 (A549): 20.9 µM; IC50 (MCF7): 10.2 µM; IC50 (PC-3): 34.4 µM
COc1cccc2c1C(=O)c1c(O)c3c(c(O)c1C2=O)C[C@@](O)(C(=O)CO)C[C@@H]3O[C@H]1C[C@H](N)[C@H](O)[C@H](C)O1 [DOXORUBICIN],,,,,,,,,,,,,,,,,,,,,IC50 (PC-3): 38 µM
COc1cc(/C=C/C(=O)/C=C(O)/C=C/c2ccc(OC(=O)[C@H](CCSC)NC(=O)OCc3ccccc3)c(OC)c2)ccc1OC(=O)[C@H](CCSC)NC(=O)OCc1ccccc1,0.58,76,0.41,80,0.25,86,0.17,88,0.05,94,101,1.22,99.3,15.17,44.44,0.125 µg/mL and 0.139 µM,0.125 µg/mL and 0.139 µM,0.125 µg/mL and 0.139 µM,0.125 µg/mL and 0.139 µM,2 µg/mL and 2.23 µM,Activity [16]: 3.33%; Activity [17]: 0.33; Activity [18]: 0.33; UI [19]: 3.99; Activity (Mus musculus [20]): 16.5; Activity (Mus musculus [21]): 61.1%; Activity (Mus musculus [22]): 9.2%; Time (Mus musculus [23]): 5.32 s; Activity (Mus musculus [24]): 6%; Time (Mus musculus [25]): 3.94 s; Activity (Mus musculus [26]): 15.2%; Time (Mus musculus [27]): 3.66 s; Activity (Mus musculus [28]): 34.6%; Time (Mus musculus [29]): 3.18 s; Activity (Mus musculus [30]): 21.4%; Activity (Mus musculus [31]): 51%; Activity [32]: Non-Toxic
COc1cc(/C=C/C(=O)/C=C(O)/C=C/c2ccc(OC(=O)CNC(=O)OCC3c4ccccc4-c4ccccc43)c(OC)c2)ccc1OC(=O)CNC(=O)OCC1c2ccccc2-c2ccccc21,1.45,40,0.78,62,0.47,74,0.29,79,0.15,82,91,1.76,68.8,18.73,31.43,1 µg/mL and 1.08 µM,1 µg/mL and 1.08 µM,1 µg/mL and 1.08 µM,1 µg/mL and 1.08 µM,2 µg/mL and 2.16 µM,Activity [16]: 0%; Activity [17]: 0; Activity [18]: 0; UI [19]: 0; Activity (Mus musculus [20]): 18; Activity (Mus musculus [21]): 57.5%; Activity (Mus musculus [22]): 93.3%; Time (Mus musculus [23]): 5.96 s; Activity (Mus musculus [24]): 18.7%; Time (Mus musculus [25]): 4.08 s; Activity (Mus musculus [26]): 19.3%; Time (Mus musculus [27]): 3.82 s; Activity (Mus musculus [28]): 40.4%; Time (Mus musculus [29]): 3.72 s; Activity (Mus musculus [30]): 42%; Activity (Mus musculus [31]): 100%; Activity [32]: Non-Toxic
